Reference: ChEMBL document CHEMBL1201862, “PubChem BioAssay data set” (2004)
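Compound exposure: 48 hours, 5 concentrations, 96-well plates. GI50 is the concentration that inhibits growth by half.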 The source made the active and inactive calls. Rule as the data show it: active = GI50 up to about 1.1 µM and inactive = higher.

Key:
Assay in all cases: DTP human tumour cell line panel, 48 h
NCI-H460 = system: NCI-H460
MDA-MB-435 = system: MDA-MB-435
T47D = system: T47D
786-0 = system: 786-0
RXF 393 = system: RXF 393
A498 = system: A498
SN12C = system: SN12C
OVCAR-4 = system: OVCAR-4
HL-60 = system: HL-60
HOP-92 = system: HOP-92
K562 = system: K562
HCC 2998 = system: HCC 2998
SR = system: SR
NCI/ADR-RES = system: NCI/ADR-RES
OVCAR-5 = system: OVCAR-5
PC-3 = system: PC-3
SK-MEL-5 = system: SK-MEL-5
SF-295 = system: SF-295
SK-MEL-28 = system: SK-MEL-28
HCT-116 = system: HCT-116

SMILES | GI50 (NCI-H460) | GI50 (MDA-MB-435) | GI50 (T47D) | GI50 (786-0) | GI50 (RXF 393) | GI50 (A498) | GI50 (SN12C) | GI50 (OVCAR-4) | GI50 (HL-60) | GI50 (HOP-92) | GI50 (K562) | GI50 (HCC 2998) | GI50 (SR) | GI50 (NCI/ADR-RES) | GI50 (OVCAR-5) | GI50 (PC-3) | GI50 (SK-MEL-5) | GI50 (SF-295) | GI50 (SK-MEL-28) | GI50 (HCT-116)
CC(C)(C)CC(C)(C)c1ccc(O)c(C[N+](C)(C)[O-])c1 | > 100 µM (inactive) | 79.4 µM (inactive) | 68.2 µM (inactive) | > 100 µM (inactive) | > 100 µM (inactive) | > 100 µM (inactive) | > 100 µM (inactive) | 63.5 µM (inactive) | 33.3 µM (inactive) | 77.4 µM (inactive) | 74.8 µM (inactive) | 31.9 µM (inactive) | 64.9 µM (inactive) | > 100 µM (inactive) | > 100 µM (inactive) | 85.7 µM (inactive) | 58.9 µM (inactive) | > 100 µM (inactive) | > 100 µM (inactive) | 98.6 µM (inactive)
O=C1C(CN2CCCC2)CCCC1CN1CCCC1 (centres undefined) | 22.8 µM (inactive) | 2.76 µM (inactive) | 2.56 µM (inactive) | 1.07 µM (active) | 2.69 µM (inactive) | 20.7 µM (inactive) | 17.1 µM (inactive) | 5.75 µM (inactive) | 0.326 µM (active) | 0.229 µM (active) | 0.206 µM (active) | 18.3 µM (inactive) | 3.04 µM (inactive) | 6.1 µM (inactive) | 5.98 µM (inactive) | 18.2 µM (inactive) | 16.6 µM (inactive) | > 38.7 µM (inactive) | 3.85 µM (inactive) | 1.8 µM (inactive)
COc1ccc(/C=C/C(=O)c2cccc(C(=O)/C=C/c3ccc(OC)c(OC)c3)n2)cc1OC | 96.8 µM (inactive) | > 50.9 µM (inactive) | > 49.3 µM (inactive) | 11.9 µM (inactive) | 40.4 µM (inactive) | > 91.2 µM (inactive) | 15.5 µM (inactive) | > 100 µM (inactive) | 1.15 µM (inactive) | > 100 µM (inactive) | 3.69 µM (inactive) | > 100 µM (inactive) | 2.91 µM (inactive) | 24.8 µM (inactive) | 29.6 µM (inactive) | 29 µM (inactive) | 98.4 µM (inactive) | > 73.8 µM (inactive) | 15.8 µM (inactive) | 7.96 µM (inactive)
CC1(C)OC(=S)N(c2ccccc2)C12C=Cc1cc3ccccc3cc1O2 (centres undefined) | > 100 µM (inactive) | > 100 µM (inactive) | > 100 µM (inactive) | > 100 µM (inactive) | > 100 µM (inactive) | > 100 µM (inactive) | > 100 µM (inactive) | > 100 µM (inactive) | 16.6 µM (inactive) | > 100 µM (inactive) | 41.3 µM (inactive) | > 100 µM (inactive) | 9.46 µM (inactive) | > 100 µM (inactive) | > 100 µM (inactive) | 44.2 µM (inactive) | > 100 µM (inactive) | > 100 µM (inactive) | > 100 µM (inactive) | > 100 µM (inactive)
O=C1c2ccccc2C(=O)c2oc(Br)cc21 | 0.845 µM (active) | 0.159 µM (active) | 1.73 µM (inactive) | 1.57 µM (inactive) | 1.49 µM (inactive) | 1.94 µM (inactive) | 0.953 µM (active) | 1.87 µM (inactive) | 0.378 µM (active) | 2.02 µM (inactive) | 2.12 µM (inactive) | 1.82 µM (inactive) | 1.09 µM (active) | 2.22 µM (inactive) | 1.67 µM (inactive) | 2.26 µM (inactive) | 0.144 µM (active) | 0.269 µM (active) | 0.34 µM (active) | 1.36 µM (inactive)
O=C1CSC(c2cc3cc(Br)ccc3nc2Cl)N1c1ccc(F)c(Cl)c1 (centres undefined) | 40.8 µM (inactive) | 25.1 µM (inactive) | 31.4 µM (inactive) | 27.4 µM (inactive) | > 50 µM (inactive) | > 50 µM (inactive) | > 50 µM (inactive) | > 50 µM (inactive) | > 50 µM (inactive) | > 50 µM (inactive) | 18.6 µM (inactive) | > 50 µM (inactive) | 12.7 µM (inactive) | > 50 µM (inactive) | > 50 µM (inactive) | 29.9 µM (inactive) | > 50 µM (inactive) | > 50 µM (inactive) | > 50 µM (inactive) | > 50 µM (inactive)
C/C(=N\Nc1nc2cc(Cl)ccc2s1)c1ccccn1 | 0.673 µM (active) | 1.83 µM (inactive) | 0.402 µM (active) | 0.617 µM (active) | 1.99 µM (inactive) | 1.61 µM (inactive) | 0.372 µM (active) | 0.39 µM (active) | 0.14 µM (active) | 0.473 µM (active) | 0.136 µM (active) | 11.5 µM (inactive) | 0.228 µM (active) | 0.343 µM (active) | 2.77 µM (inactive) | 1.35 µM (inactive) | 0.428 µM (active) | 0.914 µM (active) | 2.56 µM (inactive) | 0.301 µM (active)
Clc1ccc(-c2cc(-c3cc4cc(Br)ccc4nc3Cl)on2)cc1 | 10.1 µM (inactive) | 11 µM (inactive) | 15 µM (inactive) | 18.9 µM (inactive) | 15.4 µM (inactive) | 11.7 µM (inactive) | 16.1 µM (inactive) | 16.2 µM (inactive) | 1.7 µM (inactive) | 27.9 µM (inactive) | 15.1 µM (inactive) | 10.3 µM (inactive) | 10.4 µM (inactive) | 14.9 µM (inactive) | 1.4 µM (inactive) | 16.5 µM (inactive) | 9.12 µM (inactive) | 11.3 µM (inactive) | 9.62 µM (inactive) | 12.2 µM (inactive)
CCCCSc1nsc(N(C(=O)c2ccccc2)C(=O)c2ccccc2)n1 | 27.5 µM (inactive) | 33.7 µM (inactive) | 37.9 µM (inactive) | 32 µM (inactive) | 32.3 µM (inactive) | 31.5 µM (inactive) | 29.2 µM (inactive) | 57.5 µM (inactive) | 28.1 µM (inactive) | 26.2 µM (inactive) | 29.7 µM (inactive) | 25.5 µM (inactive) | 21.6 µM (inactive) | 31.6 µM (inactive) | 26.5 µM (inactive) | 33.5 µM (inactive) | 18.8 µM (inactive) | 32.7 µM (inactive) | 40.2 µM (inactive) | 28.8 µM (inactive)
C1=N\c2ccc(cc2)/N=C\c2ccccc2OCc2cccc(n2)COc2ccccc2/1 | > 100 µM (inactive) | > 100 µM (inactive) | > 100 µM (inactive) | 45.5 µM (inactive) | 5.19 µM (inactive) | > 100 µM (inactive) | > 100 µM (inactive) | > 100 µM (inactive) | > 100 µM (inactive) | > 100 µM (inactive) | > 100 µM (inactive) | > 100 µM (inactive) | > 100 µM (inactive) | > 100 µM (inactive) | > 100 µM (inactive) | > 100 µM (inactive) | > 100 µM (inactive) | 76.9 µM (inactive) | – | > 100 µM (inactive)
CN(C)CC1COC2Cc3ccccc3C1O2 (centres undefined) | > 100 µM (inactive) | > 100 µM (inactive) | > 100 µM (inactive) | > 100 µM (inactive) | > 100 µM (inactive) | > 100 µM (inactive) | > 100 µM (inactive) | > 100 µM (inactive) | 72.6 µM (inactive) | > 100 µM (inactive) | > 100 µM (inactive) | > 100 µM (inactive) | > 100 µM (inactive) | > 100 µM (inactive) | > 100 µM (inactive) | > 100 µM (inactive) | > 100 µM (inactive) | > 100 µM (inactive) | > 100 µM (inactive) | > 100 µM (inactive)
O=C1N[C@@H](c2c[nH]c3cc(Br)ccc23)C(=O)N[C@H]1c1c[nH]c2cc(Br)ccc12 | > 100 µM (inactive) | > 100 µM (inactive) | > 100 µM (inactive) | > 100 µM (inactive) | > 100 µM (inactive) | > 100 µM (inactive) | > 100 µM (inactive) | > 100 µM (inactive) | > 100 µM (inactive) | 40.6 µM (inactive) | > 100 µM (inactive) | > 100 µM (inactive) | > 100 µM (inactive) | > 100 µM (inactive) | > 100 µM (inactive) | > 100 µM (inactive) | > 100 µM (inactive) | > 100 µM (inactive) | > 100 µM (inactive) | > 100 µM (inactive)
CC1(C)OC(=O)N(c2ccccc2)C12C=Cc1cc([N+](=O)[O-])cc([N+](=O)[O-])c1O2 (centres undefined) | > 100 µM (inactive) | 83.9 µM (inactive) | > 100 µM (inactive) | > 100 µM (inactive) | > 100 µM (inactive) | 81.3 µM (inactive) | > 100 µM (inactive) | 92 µM (inactive) | 61.9 µM (inactive) | 12.4 µM (inactive) | 89.3 µM (inactive) | > 100 µM (inactive) | > 100 µM (inactive) | > 100 µM (inactive) | > 100 µM (inactive) | 91.2 µM (inactive) | > 100 µM (inactive) | > 100 µM (inactive) | > 100 µM (inactive) | > 100 µM (inactive)
COc1ccc(NC(C(N)=O)c2cc3cc(Br)ccc3nc2Cl)cc1 (centres undefined) | 89.5 µM (inactive) | 22.1 µM (inactive) | 58.1 µM (inactive) | > 100 µM (inactive) | 38.3 µM (inactive) | > 100 µM (inactive) | > 100 µM (inactive) | 68.4 µM (inactive) | 25.4 µM (inactive) | 22.5 µM (inactive) | 26.7 µM (inactive) | 73.8 µM (inactive) | 15.6 µM (inactive) | 39 µM (inactive) | > 100 µM (inactive) | 44.6 µM (inactive) | 53.5 µM (inactive) | 38.4 µM (inactive) | > 100 µM (inactive) | 61 µM (inactive)
